The NIST ThermoML archive (doi:10.1016/j.tca.2016.05.001)
“And” between values parts separate entries of the source, which are not always exact repeats. Equal values may be shown once.

Assays:
[1] = for Triple point temperature: DSC
[2] = Molar enthalpy of transition or fusion; conditions: Crystal; DSC

c1cnc2c(c1)ccc1cccnc12 [1,10-phenanthroline]
[1]
Conditions | vapor or sublimation pressure [kPa]
308.1 K, Crystal, Calculated from knudsen effusion weight loss | 8.3e-07
313.1 K, Crystal, Calculated from knudsen effusion weight loss | 1.76e-06
318.1 K, Crystal, Calculated from knudsen effusion weight loss | 3.3e-06
320.9 K, Crystal, Calculated from knudsen effusion weight loss | 4.6e-06
323.1 K, Crystal, Calculated from knudsen effusion weight loss | 5.5e-06
325.8 K, Crystal, Calculated from knudsen effusion weight loss | 8e-06
327.9 K, Crystal, Calculated from knudsen effusion weight loss | 9.9e-06
330.9 K, Crystal, Calculated from knudsen effusion weight loss | 1.53e-05
332.8 K, Crystal, Calculated from knudsen effusion weight loss | 1.71e-05
335.7 K, Crystal, Calculated from knudsen effusion weight loss | 2.6e-05
337.7 K, Crystal, Calculated from knudsen effusion weight loss | 3e-05
340.6 K, Crystal, Calculated from knudsen effusion weight loss | 4.2e-05
342.6 K, Crystal, Calculated from knudsen effusion weight loss | 5.1e-05
345.5 K, Crystal, Calculated from knudsen effusion weight loss | 7.7e-05
345.6 K, Crystal, Calculated from knudsen effusion weight loss | 7.5e-05
347.5 K, Crystal, Calculated from knudsen effusion weight loss | 9.2e-05
350.8 K, Crystal, Calculated from knudsen effusion weight loss | 0.000131
352.7 K, Crystal, Calculated from knudsen effusion weight loss | 0.000148
354.7 K, Crystal, Calculated from knudsen effusion weight loss | 0.000194
357.7 K, Crystal, Calculated from knudsen effusion weight loss | 0.00024
358.6 K, Crystal, Calculated from knudsen effusion weight loss | 0.00025
360.5 K, Crystal, Calculated from knudsen effusion weight loss | 0.0003
360.6 K, Crystal, Calculated from knudsen effusion weight loss | 0.00033
361.8 K, Crystal, Calculated from knudsen effusion weight loss | 0.00034
362.5 K, Crystal, Calculated from knudsen effusion weight loss | 0.00038
363.4 K, Crystal, Calculated from knudsen effusion weight loss | 0.0004
365 K, Crystal, Calculated from knudsen effusion weight loss | 0.00046
366.3 K, Crystal, Calculated from knudsen effusion weight loss | 0.00052
367.4 K, Crystal, Calculated from knudsen effusion weight loss | 0.0006
367.6 K, Crystal, Calculated from knudsen effusion weight loss | 0.00059
369.3 K, Crystal, Calculated from knudsen effusion weight loss | 0.00069
370.9 K, Crystal, Calculated from knudsen effusion weight loss | 0.0008
372.2 K, Crystal, Calculated from knudsen effusion weight loss | 0.0009
374 K, Crystal, Calculated from knudsen effusion weight loss | 0.00107
375.1 K, Crystal, Calculated from knudsen effusion weight loss | 0.00119
377.2 K, Crystal, Calculated from knudsen effusion weight loss | 0.0014
378.1 K, Crystal, Calculated from knudsen effusion weight loss | 0.00154
380.1 K, Crystal, Calculated from knudsen effusion weight loss | 0.00182
381 K, Crystal, Calculated from knudsen effusion weight loss | 0.00199
382.8 K, Crystal, Calculated from knudsen effusion weight loss | 0.00229
384.2 K, Crystal, Calculated from knudsen effusion weight loss | 0.00264
385.6 K, Crystal, Calculated from knudsen effusion weight loss | 0.00292
387.1 K, Crystal, Calculated from knudsen effusion weight loss | 0.00335
393.2 K, Liquid, Rate of evaporation | 0.0054
395.9 K, Liquid, Rate of evaporation | 0.0061
398.6 K, Liquid, Rate of evaporation | 0.0073
401.3 K, Liquid, Rate of evaporation | 0.0084
404.1 K, Liquid, Rate of evaporation | 0.0094
406.8 K, Liquid, Rate of evaporation | 0.0113
409.5 K, Liquid, Rate of evaporation | 0.0131
412.3 K, Liquid, Rate of evaporation | 0.0147
415 K, Liquid, Rate of evaporation | 0.0173
417.7 K, Liquid, Rate of evaporation | 0.0206
420.5 K, Liquid, Rate of evaporation | 0.024

Conditions | Triple point temperature [K]
[1], Crystal | 390.9

Conditions | Molar enthalpy of transition or fusion [kcal/mol]
[2] | 3.2

c1cnc2ccc3ncccc3c2c1 [4,7-phenanthroline]
[1]
Conditions | vapor or sublimation pressure
336.8 K, Crystal, Torsion effusion method | 2.8e-05 kPa
337.1 K, Crystal, Torsion effusion method | 2.8e-05 kPa
339.5 K, Crystal, Torsion effusion method | 3.8e-05 kPa
340 K, Crystal, Torsion effusion method | 3.8e-05 kPa
340.1 K, Crystal, Torsion effusion method | 3.8e-05 kPa
341 K, Crystal, Torsion effusion method | 4.7e-05 kPa
341.9 K, Crystal, Torsion effusion method | 4.7e-05 kPa
342.8 K, Crystal, Torsion effusion method | 5.7e-05 kPa
342.9 K, Crystal, Torsion effusion method | 5.7e-05 kPa
343.3 K, Crystal, Torsion effusion method | 5.7e-05 kPa
346 K, Crystal, Torsion effusion method | 8.5e-05 kPa
346.6 K, Crystal, Torsion effusion method | 9.4e-05 kPa
346.7 K, Crystal, Torsion effusion method | 9.4e-05 kPa
348.3 K, Crystal, Torsion effusion method | 0.000114 kPa
349 K, Crystal, Torsion effusion method | 0.000114 kPa
349.4 K, Crystal, Torsion effusion method | 0.000133 kPa
350.6 K, Crystal, Torsion effusion method | 0.000151 kPa
350.8 K, Crystal, Torsion effusion method | 0.000133 kPa
351.7 K, Crystal, Torsion effusion method | 0.00017 kPa
351.8 K, Crystal, Torsion effusion method | 0.00017 kPa
352.7 K, Crystal, Torsion effusion method | 0.00019 kPa
352.8 K, Crystal, Torsion effusion method | 0.00017 kPa
354.4 K, Crystal, Torsion effusion method | 0.000208 kPa
354.7 K, Crystal, Torsion effusion method | 0.000219 kPa
354.8 K, Crystal, Torsion effusion method | 0.000228 kPa
355.5 K, Crystal, Torsion effusion method | 0.000264 kPa
355.7 K, Crystal, Torsion effusion method | 0.000247 kPa
355.8 K, Crystal, Torsion effusion method | 0.000247 kPa
356.4 K, Crystal, Torsion effusion method | 0.000264 kPa
358.2 K, Crystal, Torsion effusion method | 0.00034 kPa and 0.000323 kPa
358.7 K, Crystal, Torsion effusion method | 0.000361 kPa
359.4 K, Crystal, Torsion effusion method | 0.000379 kPa
360.2 K, Crystal, Torsion effusion method | 0.000415 kPa
360.5 K, Crystal, Torsion effusion method | 0.000436 kPa and 0.000415 kPa
361.4 K, Crystal, Torsion effusion method | 0.000512 kPa
362.2 K, Crystal, Torsion effusion method | 0.000472 kPa
363.1 K, Crystal, Torsion effusion method | 0.000533 kPa
363.2 K, Crystal, Torsion effusion method | 0.000571 kPa
364.1 K, Crystal, Torsion effusion method | 0.000625 kPa
366.2 K, Crystal, Torsion effusion method | 0.000819 kPa and 0.000741 kPa
368.4 K, Crystal, Torsion effusion method | 0.000951 kPa
368.7 K, Crystal, Torsion effusion method | 0.00102 kPa
369.6 K, Crystal, Torsion effusion method | 0.001041 kPa
463.1 K, Liquid, Rate of evaporation | 1.495 kPa
468.1 K, Liquid, Rate of evaporation | 1.882 kPa
473.1 K, Liquid, Rate of evaporation | 2.253 kPa
477.9 K, Liquid, Rate of evaporation | 2.67 kPa
481.9 K, Liquid, Rate of evaporation | 3.103 kPa
486.5 K, Liquid, Rate of evaporation | 4.064 kPa
492.1 K, Liquid, Rate of evaporation | 5.014 kPa
496.2 K, Liquid, Rate of evaporation | 6.311 kPa

Conditions | Triple point temperature [K]
[1], Crystal | 444.1

Conditions | Molar enthalpy of transition or fusion [kcal/mol]
[2] | 5.35
